How the values were obtained:
[1] = absorption spectrum (maximum absorption wavelength, molar extinction coefficient); assay type: physicochemical
[2] = singlet oxygen efficiency test, reference rose bengal; assay type: physicochemical

Row | Structure (SMILES) | maximum absorption wavelength [1] [nm] | molar extinction coefficient [1] | singlet oxygen yield [2] [%]
1 | COc1c(O)c2c(=O)cc(OC)c3c4c(OC)c(Br)c(=O)c5c(NCCNCCOCCO)c(NCCNCCOCCO)c6c(c(c1C(C(C)=O)C(C)=C6)c23)c54 (stereo not drawn) [HB-5a-Br-PEG1] | 622 | 30,500 M^−1cm^−1 | 28
2 | COc1c(O)c2c(=O)cc(OC)c3c4c(OC)cc(=O)c5c(NCC[N+]67CC[N+](C)(CC6)CC7)c(NCC[N+]67CC[N+](C)(CC6)CC7)c6c(c(c1C(C(C)=O)C(C)=C6)c23)c54 (stereo not drawn) [HB-41a] | 622 | 32,500 M^−1cm^−1 | 31
3 | COc1c(NC(CCC(=O)O)C(=O)O)c2c(=O)cc(OC)c3c4c(OC)cc(=O)c5c(O)c(NC(CCC(=O)O)C(=O)O)c6c(c(c1C(C(C)=O)C(C)=C6)c23)c54 (stereo not drawn) [HB-28b] | 620 | 21,000 M^−1cm^−1 | 19
4 | CCNc1c2c3c4c(c(OC)c(=O)c5c(O)cc(OC)c(c6c(OC)c(SCCO)c(NC7CCCC7)c(c1=O)c36)c54)C(C(C)=O)C(C)=C2 (stereo not drawn) [HB-S-44c] | 628 | 21,000 M^−1cm^−1 | 20
5 | COc1c2c3c4c(c(NCCO)c(=O)c5c(NCCO)cc(OC)c(c6c(OC)cc(O)c(c1=O)c63)c54)C=C(C)C2C(C)=O (stereo not drawn) [HB-2c] | 628 | 31,000 M^−1cm^−1 | 30
6 | COCCOCCC(=O)OCCNc1c(NCCOC(=O)CCOCCOC)c2c(=O)cc(OC)c3c4c(OC)cc(=O)c5c(O)c(OC)c6c(c(c1C=C(C)C6C(C)=O)c23)c54 (stereo not drawn) [HB-2a-PEG1] | 620 | 30,500 M^−1cm^−1 | 30
7 | COc1c2c3c4c(c(NCCCS(=O)(=O)O)c(=O)c5c(NCS(=O)(=O)O)cc(OC)c(c6c(OC)cc(O)c(c1=O)c63)c54)C=C(C)C2 [HC-45c] | 627 | 22,000 M^−1cm^−1 | 21
8 | COc1c2c3c4c(c(NC5CCC(C(=O)O)CC5)c(=O)c5c(NC6CCC(C(=O)O)CC6)cc(OC)c(c6c(OC)cc(O)c(c1=O)c63)c54)C=C(C)C2C(C)=O (stereo not drawn) [HB-14c] | 621 | 28,000 M^−1cm^−1 | 26
9 | CCCCCCNc1c2c3c4c(c(OC)c(=O)c5c(O)cc(OC)c(c6c(OC)cc(NCCCCCC)c(c1=O)c63)c54)CC(C)=C2 [HC-34c] | 624 | 32,500 M^−1cm^−1 | 38
10 | COCCOCCOCCOCCOC(=O)C1CCC(CNc2c(O)c3c(=O)cc(OC)c4c5c(OC)cc(=O)c6c(NCC7CCC(C(=O)OCCOCCOCCOCCOC)CC7)c(OC)c7c(c(c2C=C(C)C7)c34)c65)CC1 (stereo not drawn) [HC-13b-PEG4] | 624 | 30,000 M^−1cm^−1 | 32
11 | COc1c2c3c4c(c(NCCCC(=O)OCCCCCC[N+](C)(C)C)c(=O)c5c(NCCCC(=O)OCCCCCC[N+](C)(C)C)cc(OC)c(c6c(OC)cc(O)c(c1=O)c63)c54)C=C(C)C2 [HC-8c-C6-N^+] | 632 | 32,500 M^−1cm^−1 | 35
12 | COc1c2c3c4c(c(NCCC(=O)O)c(=O)c5c(O)cc(OC)c(c6c(OC)cc(NCCC(=O)O)c(c1=O)c63)c54)C=C(C)C2C(C)=O (stereo not drawn) [HB-10d] | 621 | 32,500 M^−1cm^−1 | 32
13 | COc1c2c3c4c(c(NCCSCCOCCO)c(=O)c5c(O)cc(OC)c(c6c(OC)cc(NCCSCCOCCO)c(c1=O)c63)c54)C=C(C)C2C(C)=O (stereo not drawn) [HB-6d-PEG1] | 625 | 30,500 M^−1cm^−1 | 32
14 | COc1c2c3c4c(c(NC5CCCCC5C(=O)O)c(=O)c5c(NC6CCCCC6C(=O)O)cc(OC)c(c6c(OC)cc(O)c(c1=O)c63)c54)C=C(C)C2C(C)=O (stereo not drawn) [HB-16c] | 628 | 28,000 M^−1cm^−1 | 28
15 | COc1c(NCC[N+]23CC[N+](C)(CC2)CC3)c2c(=O)cc(OC)c3c4c(OC)cc(=O)c5c(O)c(NCC[N+]67CC[N+](C)(CC6)CC7)c6c(c(c1C(C(C)=O)C(C)=C6)c23)c54 (stereo not drawn) [HB-41b] | 624 | 31,500 M^−1cm^−1 | 32
16 | COc1c(O)c2c(=O)cc(OC)c3c4c(OC)cc(=O)c5c(NCCNCCOCCO)c(NCCNCCOCCO)c6c(c(c1C(C(C)=O)C(C)=C6)c23)c54 (stereo not drawn) [HB-5a-PEG1] | 622 | 29,500 M^−1cm^−1 | 28
17 | CCNNc1c(O)c2c(=O)cc(OC)c3c4c(OC)cc(=O)c5c(NNCC)c(OC)c6c(c(c1C=C(C)C6C(C)=O)c23)c54 (stereo not drawn) [HB-36b] | 622 | 31,500 M^−1cm^−1 | 30

Row | Structure (SMILES) | maximum absorption wavelength [1] [nm] | molar extinction coefficient [1] | singlet oxygen yield [2] [%]
18 | COCCOC(=O)CCCNc1c(NCCCC(=O)OCCOC)c2c(=O)cc(OC)c3c4c(OC)cc(=O)c5c(O)c(OC)c6c(c(c1C=C(C)C6)c23)c54 [HC-8a-PEG1] | 621 | 30,000 M^−1cm^−1 | 28
19 | COc1c2c3c4c(c(NCCC(=O)O)c(=O)c5c(NCCC(=O)O)cc(OC)c(c6c(OC)cc(O)c(c1=O)c63)c54)C=C(C)C2C(C)=O (stereo not drawn) [HB-10c] | 622 | 33,000 M^−1cm^−1 | 38
20 | COc1c2c3c4c(c(NCC(=O)O)c(=O)c5c(NCCCC(=O)O)cc(OC)c(c6c(OC)cc(O)c(c1=O)c63)c54)C=C(C)C2C(C)=O (stereo not drawn) [HB-43c] | 626 | 26,500 M^−1cm^−1 | 30
21 | COc1c(NC2CCCCC2C(=O)O)c2c(=O)cc(OC)c3c4c(OC)cc(=O)c5c(O)c(NC6CCCCC6C(=O)O)c6c(c(c1C(C(C)=O)C(C)=C6)c23)c54 (stereo not drawn) [HB-16b] | 625 | 26,000 M^−1cm^−1 | 26
22 | CCCCCCNc1c2c3c4c(c(OC)c(=O)c5c(NCCCCCC)cc(OC)c(c6c(OC)cc(O)c(c1=O)c63)c54)CC(C)=C2 [HC-34d] | 628 | 32,000 M^−1cm^−1 | 32
23 | COc1c2c3c4c(c(NC5CCCC(C(=O)O)C5)c(=O)c5c(O)cc(OC)c(c6c(OC)cc(NC7CCCC(C(=O)O)C7)c(c1=O)c63)c54)C=C(C)C2C(C)=O (stereo not drawn) [HB-15d] | 623 | 27,000 M^−1cm^−1 | 24
24 | COc1c2c3c4c(c(NCC5CCC(C(=O)NCCCCCCS(=O)(=O)O)CC5)c(=O)c5c(NCC6CCC(C(=O)NCCCCCCS(=O)(=O)O)CC6)cc(OC)c(c6c(OC)cc(O)c(c1=O)c63)c54)C=C(C)C2 (stereo not drawn) [HC-13c-C6-SO3H] | 630 | 33,000 M^−1cm^−1 | 36
25 | COc1c(NC(C(=O)O)C(C)C)c2c(=O)cc(OC)c3c4c(OC)cc(=O)c5c(O)c(NC(C(=O)O)C(C)C)c6c(c(c1C(C(C)=O)C(C)=C6)c23)c54 (stereo not drawn) [HB-22b] | 618 | 21,000 M^−1cm^−1 | 19
26 | COc1c(O)c2c(=O)cc(OC)c3c4c(OC)cc(=O)c5c(NC6(CO)CC6)c(NC6(CO)CC6)c6c(c(c1C(C(C)=O)C(C)=C6)c23)c54 (stereo not drawn) [HB-35a] | 621 | 30,500 M^−1cm^−1 | 32
27 | COCCOCCC(=O)N1CCC(CNc2c(NCC3CCN(C(=O)CCOCCOC)CC3)c3c(=O)c(Br)c(OC)c4c5c(OC)cc(=O)c6c(O)c(OC)c7c(c(c2C=C(C)C7C(C)=O)c34)c65)CC1 (stereo not drawn) [HB-31a-Br-PEG1] | 624 | 32,000 M^−1cm^−1 | 33
28 | COc1c(O)c2c(=O)cc(OC)c3c4c(OC)cc(=O)c5c(NCc6cccc[n+]6C)c(NCc6cccc[n+]6C)c6c(c(c1C(C(C)=O)C(C)=C6)c23)c54 (stereo not drawn) [HB-38a-N^+] | 620 | 22,000 M^−1cm^−1 | 18
29 | COCCOCCOCCOCCOCCOCCOCCN1CCC(CNc2c3c4c5c(c(OC)c(=O)c6c(O)cc(OC)c(c7c(OC)cc(NCC8CCN(CCOCCOCCOCCOCCOCCOCCOC)CC8)c(c2=O)c74)c65)C(C(C)=O)C(C)=C3)CC1 (stereo not drawn) [HB-32c-PEG6] | 632 | 33,500 M^−1cm^−1 | 40
30 | COc1c(O)c2c(=O)cc(OC)c3c4c(OC)cc(=O)c5c(NCc6cccc[n+]6CCCC(=O)O)c(NCc6cccc[n+]6CCCC(=O)O)c6c(c(c1C(C(C)=O)C(C)=C6)c23)c54 (stereo not drawn) [HB-38a-N—COOH] | 620 | 22,000 M^−1cm^−1 | 20
31 | COC(=O)C(CO)Nc1c2c3c4c(c(OC)c(=O)c5c(NC(CO)C(=O)OC)cc(OC)c(c6c(OC)cc(O)c(c1=O)c63)c54)C(C(C)=O)C(C)=C2 (stereo not drawn) [HB-24d] | 621 | 20,500 M^−1cm^−1 | 20
32 | COCCOCCC(=O)OCCOCCNc1c(NCCOCCOC(=O)CCOCCOC)c2c(=O)cc(OC)c3c4c(OC)cc(=O)c5c(O)c(OC)c6c(c(c1C=C(C)C6)c23)c54 [HC-1a-PEG1] | 622 | 30,500 M^−1cm^−1 | 32
33 | COc1c(NCCOCCO)c2c(=O)cc(OC)c3c4c(OC)cc(=O)c5c(O)c(NCCOCCO)c6c(c(c1C(C(C)=O)C(C)=C6)c23)c54 (stereo not drawn) [HB-1b] | 622 | 28,000 M^−1cm^−1 | 36
34 | COCCOCCC(=O)OCCOCCNc1c(NCCOCCOC(=O)CCOCCOC)c2c(=O)cc(OC)c3c4c(OC)cc(=O)c5c(O)c(OC)c6c(c(c1C=C(C)C6C(C)=O)c23)c54 (stereo not drawn) [HB-1a-PEG1] | 625 | 31,000 M^−1cm^−1 | 35
